Source: patent US8063079B2, “Cyclopropyl compounds” (Eli Lilly and Company, priority 2008, dated 2011)
Several values for one entry are separate records, joined by “and”; a condition that tells them apart may be missing. Equal entries are not always repeated.

Tests used:
[1] = biological target: T1, human islet GK isoform (Homo sapiens, UniProt P35557); assay: Glucokinase Assay; type: biochemical
T1 construct: (His)6; made in house; host or cells: E. coli
T1 sequence (P35557 1-465): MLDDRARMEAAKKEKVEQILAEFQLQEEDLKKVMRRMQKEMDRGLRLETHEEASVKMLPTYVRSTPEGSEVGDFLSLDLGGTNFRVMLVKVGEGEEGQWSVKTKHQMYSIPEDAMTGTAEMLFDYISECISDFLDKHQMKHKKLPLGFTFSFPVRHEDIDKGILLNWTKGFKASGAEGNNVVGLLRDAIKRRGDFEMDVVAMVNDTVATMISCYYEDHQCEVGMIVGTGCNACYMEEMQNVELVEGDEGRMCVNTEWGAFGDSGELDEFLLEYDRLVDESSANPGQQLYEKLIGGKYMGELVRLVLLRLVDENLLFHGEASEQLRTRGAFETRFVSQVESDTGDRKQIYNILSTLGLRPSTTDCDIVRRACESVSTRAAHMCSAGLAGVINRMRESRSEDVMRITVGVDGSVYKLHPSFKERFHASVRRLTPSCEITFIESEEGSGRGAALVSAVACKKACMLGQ
Procedure: The human islet GK isoform is expressed in E. coli as (His)6-tagged fusion protein and purified with metal chelate affinity chromatography, see e.g. Tiedge et al., Biochem. Biophys. Acta 1337, 175-190, 1997. After purification the enzyme is stored in aliquots at concentration 0.8 mg/ml in 25 mM sodium phosphate, 150 mM sodium chloride, 100 mM imidazole, 1 mM dithiothreitol, 50% glycerol at −80° C. The assay is performed in flat bottom 96-well plates in a final incubation volume of 100 μL. The incubation mixture consists of 25 mM 4-(2-hydroxyethyl)-1-piperazineethanesulfonic acid (HEPES) (pH7.4), 50 mM potassiumchloride, 2.5 mM magnesiumchloride, 2 mM dithiothreitol, 4 U/ml glucose-6-phosphate dehydrogenase from Leuconostoc mesenteroides, 5 mM ATP, 1 mM NAD and a set concentration of glucose. Test compounds are dissolved in dimethylsulfoxide and then added to the reaction mixture giving the final dimethylsulfoxide concentration of 10%. The reaction is initiated by addition of 20 μL GK and run for 20 min at 37° C. The amount of formed NADH is measured as an increase in absorbance at 340 nm using a microplate reader. Absorbance values are used for EC50 calculations.

[2] = tested on: Rat insulinoma INS-1E cells; assay: Glycolysis Assay; type: cell-based; settings: INS1-E cells, 8 mM glucose, n=4, read-out: mean EC50 of stimulation of glucose metabolism
Procedure: Rat insulinoma INS-1E cells are maintained at 37° C., 5% CO2, 95% humidity in 1640 medium supplemented with 11 mM glucose, 5% Fetal Bovine Serum, 50 μM 2-Mercaptoethanol, 1 mM pyruvate, 10 mM HEPES and antibiotics. Prior to assay, cells are trypsinized, pelleted by centrifugation and seeded into 96-well tissue culture assay plates at the density of 30,000 cells/well. Cells are allowed to attach and incubated for 48 hours at 37° C., 5% CO2. On the assay day, cells are washed with and incubated in 200 μL Earle's Balanced Salt Solution (EBSS) buffer supplemented with 0.1% Bovine Serum Albumin (BSA). After 30 minutes incubation, the buffer is removed and 100 μL EBSS buffer containing 0.1% BSA, 8 mM glucose and the compound is added to cells. Immediately after, 20 μL of CellTiter 96® AQueous One Solution Reagent is added to cells and cells are incubated at 37° C. for an additional hour. At the end of incubation absorbance at 490 nm is read. Absorbance values are used for EC50 calculations.

[3] = tested on: plasma glucose in male Wistar rats; assay: Oral Glucose Tolerance Test (OGTT); type: in vivo, rat
Procedure: Male Wistar rats at a weight of 225-250 g, are kept on regular diet and with normal light cycle and conditions. For the study, rats are fasted overnight before their exact weights are measured, and are randomized into groups of similar weights (n=4 per group). The compound is suspended in a 1:1 mixture of solutol/ethanol in a bath sonicator (10% of total volume). The obtained suspension is then diluted with 9 volumes of 10% aqueous solutol solution, and the compound is dosed orally at 1, 3, 6, 10, 20, and 30 mg/kg orally. Rats are given a 2 g/kg oral glucose bolus 2 hours after compound administration. Blood is collected via tail bleed at 0, 15, 30, 60, 90 and 120 minutes post glucose administration. Collected blood is placed into ethylenediaminetetraacetic acid (EDTA) tubes at volume of 400 μL per sample, and the samples are kept on ice. Plasma is isolated and stored at −20° C. until samples are analyzed for glucose and compound exposure. Area under the plasma glucose curve (glucose AUC) is calculated for each group and the percentage decrease in the glucose AUC versus the control group is used as a measure of efficacy of the compound to decrease plasma glucose.

[4] = Blood Brain Barrier Permeability; type: in vivo, mouse; settings: male CF-1 mice, IV bolus 2.17 μmole/kg, five minutes post dose
Procedure: A stock compound solution is prepared in dimethylsulfoxide at 10 mM. A dose solution is then prepared at 1 mM by diluting 100 μL of the stock with 900 μL of propylene glycol. The dose is administered as an IV bolus (2.2 mL/kg) via the tail vein into six male CF-1 mice (approximately 23 g) for a target dose of 2.17 μmole/kg. Mice are euthanized using both CO2 and cervical dislocation. Three mice are sacrificed 5 minutes post dose and three 60 minutes post dose. Blood is collected from each animal via cardiac puncture, and plasma is prepared using sodium EDTA, transferred into polypropylene sample tubes and immediately frozen using dry ice. […]
MS/MS is effected using a Sciex API 4000 triple quadrupole mass spectrometer equipped with a turbo ion spray source. […] Column effluent is diverted to waste from 0-2.8 minutes and then directed into the mass spectrometer from 2.8-4.0 minutes MS/MS transitions monitored are 560/84. Quantitation of compound in test samples is achieved by comparing peak area values to a quadratic equation weighted 1/x^2 derived from the nominal concentrations of the calibration standards and their respective peak areas. Upper and Lower Limits of Quantitation are determined by the back calculated recoveries of calibration standards that exceeded +/−20% of theory. […]

O=C(Nc1ncc(SCCN2CCCC2)s1)[C@]1(c2ccc(S(=O)(=O)C3CC3)cc2)C[C@H]1C1CCCCC1 [Example 1, (1R,2S)-2-Cyclohexyl-1-(4-cyclopropanesulfonyl-phenyl)-cyclopropanecarboxylic acid [5-(2-pyrrolidin-1-yl-ethylsulfanyl)-thiazol-2-yl]-amide]
EC50 ([1]; 10 mM glucose, n=5, read-out: EC50 of GK activation): 42 ± 42 nM
enzyme activity at lower glucose concentrations ([1]; lower glucose concentrations): increased the enzyme activity in a concentration dependent manner
EC50 [2]: 579 ± 139 nM
maximal lowering of glucose AUC versus the untreated control group ([3]; 30 mg/kg oral, 2 g/kg oral glucose bolus 2 hours after compound): 42%
average compound concentration in plasma at which a 20% glucose AUC decrease occurs ([3]; interpolation of the data): 99 ng/ml and 179 nM
compound dose corresponding to a 20% glucose AUC decrease ([3]; interpolation of the data, oral): 6.9 mg/kg
effect on plasma glucose ([3]; oral 1-30 mg/kg, fasted and postprandial glucose levels): decreases plasma glucose in a dose-dependent manner
mean total brain level [4]: 0.539 nmol/g
Kp at 5 min ([4]; mouse, brain/plasma, read-out: mean brain/plasma ratio): 0.17
